Laboratory results from ChEMBL document CHEMBL1145422, “Spongian diterpenoids from the sponge Spongia (Heterofibria) sp” (2007).

Test: Effect on lysosomal activation in mouse splenocytes at 100 ug/mL relative to control
Type: functional

Row | SMILES | Activity
1 | CC(=O)OC[C@@]1(C)CCC[C@]2(C)[C@H]3CCc4cocc4[C@]3(C)CC[C@@H]12 | 130%
2 | CC(=O)OC[C@]1(C)[C@@H]2CC[C@@]3(C)c4cocc4CC[C@@H]3[C@@]2(C)CC[C@@H]1OC(C)=O | 130%
